In general, IC50 refers to the concentration that inhibits the measured activity by half. A word on the kinact: it is the rate constant of inactivation at saturating inhibitor. One may read the bioavailability as dose-corrected exposure relative to a reference, in per cent. A higher bioavailability goes with much systemic uptake.

Data set [1] has as its target T1, Phosphatidylinositol 4,5-bisphosphate 3-kinase catalytic subunit delta isoform (Homo sapiens, UniProt O00329).
T1 sequence (O00329 whole entry): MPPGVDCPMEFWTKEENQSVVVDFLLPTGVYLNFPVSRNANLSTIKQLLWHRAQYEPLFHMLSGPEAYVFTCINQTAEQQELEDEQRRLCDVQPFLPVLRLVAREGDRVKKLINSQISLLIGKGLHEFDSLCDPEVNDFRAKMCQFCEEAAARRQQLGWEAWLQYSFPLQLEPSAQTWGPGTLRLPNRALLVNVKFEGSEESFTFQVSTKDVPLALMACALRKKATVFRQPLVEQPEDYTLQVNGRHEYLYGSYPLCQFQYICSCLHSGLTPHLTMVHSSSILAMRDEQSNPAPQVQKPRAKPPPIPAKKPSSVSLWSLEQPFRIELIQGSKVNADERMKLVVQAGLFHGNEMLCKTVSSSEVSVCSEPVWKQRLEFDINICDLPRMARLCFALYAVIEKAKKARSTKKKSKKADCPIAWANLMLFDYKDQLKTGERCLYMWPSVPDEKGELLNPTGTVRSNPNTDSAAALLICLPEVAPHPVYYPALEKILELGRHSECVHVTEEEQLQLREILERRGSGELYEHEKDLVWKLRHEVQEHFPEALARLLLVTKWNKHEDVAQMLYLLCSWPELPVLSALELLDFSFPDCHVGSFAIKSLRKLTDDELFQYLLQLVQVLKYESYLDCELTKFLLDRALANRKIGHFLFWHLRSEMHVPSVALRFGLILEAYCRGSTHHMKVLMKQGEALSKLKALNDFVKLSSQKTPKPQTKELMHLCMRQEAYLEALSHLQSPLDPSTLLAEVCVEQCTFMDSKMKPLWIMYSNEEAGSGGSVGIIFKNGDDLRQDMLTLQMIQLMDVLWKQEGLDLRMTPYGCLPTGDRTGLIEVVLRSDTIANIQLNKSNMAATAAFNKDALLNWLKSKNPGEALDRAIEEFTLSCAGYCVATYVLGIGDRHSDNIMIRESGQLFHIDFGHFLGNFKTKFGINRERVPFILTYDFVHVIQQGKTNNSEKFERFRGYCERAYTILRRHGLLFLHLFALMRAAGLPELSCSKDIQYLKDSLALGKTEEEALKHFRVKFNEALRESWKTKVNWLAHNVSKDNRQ
Briefly: Inhibition of human PI3Kdelta-mediated AKT phosphorylation at S473 in Ri-1 cells after 30 mins by electrochemiluminescence assay in presence of human serum albumin and alpha1 acid glycoprotein. The format is cell-based.

Data set [2] has as its target T1, Phosphatidylinositol 4,5-bisphosphate 3-kinase catalytic subunit delta isoform.
Description: Binding affinity to PI3Kdelta after 30 mins by competitive fluorescence polarization assay
A short description of data set [3]: Selectivity ratio of IC50 for PI3Kalpha to IC50 for PI3Kdelta.
The target in data set [4] is T2, Cytochrome P450 3A4 (Homo sapiens, UniProt P08684). Briefly: (§1) Time dependent inhibition of CYP3A4 in human liver microsomes preincubated for 30 mins. The format is ADME, Microsome. A general note: Liver microsomes are a subcellular fraction often used to study metabolism.
The target of data set [5] is T3, Phosphatidylinositol 4,5-bisphosphate 3-kinase catalytic subunit delta isoform (Homo sapiens) (UniProt O00329).
T3 sequence (whole entry): T1 sequence (O00329 whole entry)
Briefly: Ratio of IC50 for human PI3Kdelta-mediated AKT phosphorylation at S473 in Ri-1 cells to IC50 for PI3Kdelta. The data set is classed as cell-based.

Data set [6] is described as follows: Selectivity ratio of IC50 for PI3Kbeta to IC50 for PI3Kdelta.
The nature of data set [7]: Selectivity ratio of IC50 for PI3Kgamma to IC50 for PI3Kdelta.
The nature of data set [8]: Volume of distribution at steady state in […] Wistar rat at 0.5 mg/kg, iv and 2 mg/kg, po. The data set is classed as ADME, organism-based. As to conditions: in vivo, read-out: Vdss.
In data set [9] the target is CYP3A4 (Homo sapiens, UniProt P08684). The description is as §1. The format is ADME, Microsome. The following applies: human, liver microsomes.
Data set [10] in a line: Clearance in […] Wistar rat at 0.5 mg/kg, iv and 2 mg/kg, po. The following applies: in vivo. The format is ADME, organism-based.
A short description of data set [11]: Oral bioavailability in […] Wistar rat at 2 mg/kg. The format is ADME, organism-based. As to conditions: in vivo.
The subject of data set [12] is Liver microsomes. In words: Metabolic stability in rat liver microsomes. The data set is classed as ADME, Microsome.
In data set [13] the test system is Liver microsomes. In words: Metabolic stability in human liver microsomes. The data set is classed as ADME, Microsome.
For data set [14], the target named is T2, Cytochrome P450 3A4. In words: Inhibition of CYP3A4 in human liver microsomes. The format is ADME, Microsome. As to conditions: TDE = time-dependent effect.

T2 sequence (P08684 whole entry, canonical isoform): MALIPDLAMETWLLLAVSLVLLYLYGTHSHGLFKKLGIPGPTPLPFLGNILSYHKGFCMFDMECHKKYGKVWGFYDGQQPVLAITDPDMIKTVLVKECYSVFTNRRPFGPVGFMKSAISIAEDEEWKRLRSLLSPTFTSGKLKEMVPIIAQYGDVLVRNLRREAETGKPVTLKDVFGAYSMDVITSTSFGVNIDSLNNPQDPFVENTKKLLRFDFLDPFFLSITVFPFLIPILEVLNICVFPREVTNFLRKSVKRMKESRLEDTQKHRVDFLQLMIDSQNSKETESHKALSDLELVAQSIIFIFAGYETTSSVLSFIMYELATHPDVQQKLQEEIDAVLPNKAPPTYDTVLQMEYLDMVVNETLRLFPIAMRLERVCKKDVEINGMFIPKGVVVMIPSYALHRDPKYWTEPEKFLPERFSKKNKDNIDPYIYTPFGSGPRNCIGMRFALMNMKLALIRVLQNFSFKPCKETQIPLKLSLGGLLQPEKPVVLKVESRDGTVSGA
Sequence of CYP3A4 (P08684 whole entry): as the sequence (P08684 whole entry, canonical isoform) above

Regarding `Cc1cccc(-c2nc(N3CCOCC3)c3sc(CN4CCC(N(C)C)CC4)cc3n2)c1`, the IC50 was found to be 1300 nM in [1] and 12 nM in [2]. Also, in data set [3], the Ratio IC50 came to 98.

As to `CN(C)C1CCN(Cc2cc3nc(-c4c(F)ccc5[nH]ccc45)nc(N4CCOCC4)c3s2)CC1`, the IC50 in data set [4] came to 9100 nM; in data set [1], 29 nM; in data set [2] it was 1.8 nM. For the same compound, the Ratio IC50 in [3] was determined as 226; in data set [5], 16.

Regarding `Cc1nc2ccccc2n1-c1nc(N2CCOCC2)c2sc(CN3CCC(N(C)C)CC3)cc2n1`, the IC50 in [4] was above 10000 nM; in data set [1], 374 nM; in [2], 2.7 nM. Also, the Ratio IC50 in [6] turned out to be 252; in data set [7], 233; in [3], 29.

With `CC(C)(C(N)=O)N1CCN(Cc2cc3nc(-c4ccnc5[nH]ccc45)nc(N4CCOCC4)c3s2)CC1`, the IC50 in data set [4] was below 100 nM; in data set [2], 2.3 nM. Moreover, the values for the Ratio IC50 in data set [6], in [7] and in data set [3] were 103, 81 and 30, respectively.

As for `Cc1nc2ccccc2n1-c1nc(N2CCOCC2)c2sc(CN3CCN(C(C)(C)C(N)=O)CC3)cc2n1`, the IC50 in data set [4] was above 10000 nM; in [2], 4.3 nM. Besides, the figures for the Ratio IC50 in data set [6], in data set [7] and in data set [3] were 111, 134 and 17, respectively.

`CC(C)(C(N)=O)N1CCN(Cc2cc3nc(-c4nccc5[nH]ccc45)nc(N4CCOCC4)c3s2)CC1`: the IC50 in data set [4] is above 10000 nM; in data set [2], 3.5 nM. The Ratio IC50 in data set [6] was 46; in [7] it was 2830; in data set [3], 86.

As to `CCc1nc2ccccc2n1-c1nc(N2CCOCC2)c2sc(CN3CCN(C4COC4)CC3(C)C)cc2n1`, the IC50 in [4] was above 10000 nM; in data set [1], 102 nM; in [2], 2.3 nM. Besides, the Ratio IC50 was determined as 815 in [6], 112 in [7] and 50 in data set [3].

Take `CCc1nc2ccccc2n1-c1nc(N2CCOCC2)c2sc(CN3CCN(S(C)(=O)=O)CC3)cc2n1`: the IC50 in data set [4] was above 10000 nM; in data set [1] it was 79 nM; in data set [2] it was 4.3 nM. Moreover, the Ratio IC50 stood at 12 in data set [6], 14 in [7] and 2 in [3].

For `Fc1ccc2[nH]ccc2c1-c1nc(N2CCOCC2)c2sc(CN3CCN4CCOC[C@H]4C3)cc2n1`, in data set [8], the Vd is 2.76 L/kg. In data set [9], the kinact at 30 min is 0.0008 s⁻¹. Moreover, the IC50 in data set [4] was determined as 7000 nM; in data set [2] it was 9 nM. In data set [4], the Ki turned out to be 78000 nM. Besides, the clearance in data set [10] was found to be 25.2 mL/min/kg. For the same compound, the results for the Ratio IC50 in data set [6], in [7] and in data set [3] were 69, 806 and 42, respectively. In addition, the bioavailability in data set [11] was 75.5%. Further, the Stability in [12] is 72.5%; in data set [13] it was 68.7%.

For the compound `CC(C)(C(N)=O)N1CCN(Cc2cc3nc(-c4cncc5[nH]ccc45)nc(N4CCOCC4)c3s2)CC1`, the IC50 was 3200 nM in [4] and 0.67 nM in data set [2]. The values for the Ratio IC50 in [6], in data set [7] and in [3] were 40, 243 and 41, respectively.

As to `CC(C)(C(N)=O)N1CCN(Cc2cc3nc(-c4cc(C#N)cc5[nH]ccc45)nc(N4CCOCC4)c3s2)CC1`, the IC50 in data set [4] came out at 1200 nM; in [2], 3.2 nM. Also, the Ratio IC50 in [6] turned out to be 275; in [7], 691; in data set [3], 208.

Consider `CN(C)C1CCN(Cc2cc3nc(-n4ncc5ccccc54)nc(N4CCOCC4)c3s2)CC1`, for which the IC50 in data set [1] is 3200 nM; in data set [2] it was 16 nM. The Ratio IC50 in [3] amounted to 39.

As for `Cn1ccc2c(-c3nc(N4CCOCC4)c4sc(CN5CCN(C(C)(C)C(N)=O)CC5)cc4n3)cccc21`, the IC50 in data set [4] was above 10000 nM; in data set [2], 134 nM. Further, the Ratio IC50 in [6] was found to be 75; in data set [7] it was 75; in data set [3] it was 18.

For the compound `CN(C)C1CCN(Cc2cc3nc(-n4ccc5ccccc54)nc(N4CCOCC4)c3s2)CC1`, the IC50 in [1] stood at 420 nM; in [2], 10 nM. Further, the Ratio IC50 in data set [3] stood at 54.

Regarding `CN(C)C1CCN(Cc2cc3nc(-c4c[nH]c5ccccc45)nc(N4CCOCC4)c3s2)CC1`, in [2], half-maximal inhibition (IC50) was put at 5.6 nM. Also, the Ratio IC50 in data set [3] turned out to be 88.

Consider `CN(C)C1CCN(Cc2cc3nc(-c4cccc5nccn45)nc(N4CCOCC4)c3s2)CC1`, for which the IC50 in [1] came to 180 nM; in data set [2], 27 nM. For the same compound, the Ratio IC50 in data set [3] worked out at 21.

As for `CCc1nc2ccccc2n1-c1nc(N2CCOCC2)c2sc(CN3CCC(C(C)(C)O)CC3)cc2n1`, in [4], the IC50 was above 10000 nM.

In the case of `Cc1cc2c(-c3nc(N4CCOCC4)c4sc(CN5CCN(C(C)(C)C(N)=O)CC5)cc4n3)cccc2[nH]1`, the IC50 in data set [4] is below 100 nM; in data set [2], 1.1 nM. The Ratio IC50 in [6] stood at 101; in data set [7], 715; in data set [3], 122.

Turning to `CC(C)(C(N)=O)N1CCN(Cc2cc3nc(-c4cccc5[nH]ccc45)nc(N4CCOCC4)c3s2)CC1`, the “inhibition (INH)” value in [14] was “tde”. The values for the Ratio IC50 in data set [6], in [7] and in data set [3] were 104, 1440 and 129, respectively. In addition, 1.8 nM corresponded to half-maximal inhibition in [2] (IC50).

For the compound `CN(C)C1CCN(Cc2cc3nc(-c4cccc5c4CC(=O)N5)nc(N4CCOCC4)c3s2)CC1`, the results for the IC50 in [1] and in [2] were 3400 nM and 41 nM, respectively. Besides, the Ratio IC50 in data set [3] worked out at 8.

Turning to `CC(C)(C(N)=O)N1CCN(Cc2cc3nc(-c4cccc5[nH]ncc45)nc(N4CCOCC4)c3s2)CC1`, the Ratio IC50 in data set [6] worked out at 54; in data set [7] it was 153; in [3] it was 9. In addition, the half-inhibitory concentration (IC50) in data set [2] turned out to be 3.1 nM.

Turning to `CN(C)C1CCN(Cc2cc3nc(-c4n[nH]c5ccccc45)nc(N4CCOCC4)c3s2)CC1`, it took 9.8 nM to reach half-maximal inhibition in data set [2] (IC50). In addition, the Ratio IC50 in [3] amounted to 65.

For `Cc1ncc2ccccc2c1-c1nc(N2CCOCC2)c2sc(CN3CCC(N(C)C)CC3)cc2n1`, the IC50 in [1] came out at 2000 nM; in [2] it was 29 nM. In addition, in data set [3], the Ratio IC50 is 144.

For the compound `CS(=O)(=O)N1CCN(Cc2cc3nc(-c4cccc5[nH]ccc45)nc(N4CCOCC4)c3s2)CC1`, in [14], the “inhibition (INH)” value was “tde”. Further, the Ratio IC50 amounted to 25 in data set [6], 268 in data set [7] and 22 in data set [3]. In addition, in data set [2], inhibition was half-maximal at 1.7 nM (IC50).

For the compound `CC(C)(C(N)=O)N1CCN(Cc2cc3nc(-c4c(F)cc(F)c5[nH]ccc45)nc(N4CCOCC4)c3s2)CC1`, the values for the IC50 in data set [4] and in data set [2] were 600 nM and 6 nM, respectively. In addition, the Ratio IC50 is 137 in data set [6], 350 in data set [7] and 96 in [3].

With `CC(C)(C(N)=O)N1CCN(Cc2cc3nc(-c4cc(F)cc5[nH]ccc45)nc(N4CCOCC4)c3s2)CC1`, the results for the IC50 in [4] and in data set [2] were 510 nM and 0.48 nM, respectively. Moreover, the Ratio IC50 was determined as 80 in data set [6], 566 in data set [7] and 77 in [3].

Take `CN(C)C1CCN(Cc2cc3nc(-n4cnc5ccccc54)nc(N4CCOCC4)c3s2)CC1`: the values for the IC50 in data set [1] and in [2] were 970 nM and 23 nM, respectively. Also, the Ratio IC50 in data set [3] worked out at 14; in data set [5], 42.
